In one experiment the test system is Hep3B cells. In words: EPO production assay (ELISA of culture supernatant). The experiment is classed as cell-based. To be noted: Homo sapiens, 3 μmol/L test compound, 48 hours, relative to control (0.1% DMSO), read-out: EPO production stimulation rate with 3 μmol/L test compound. Here is the method:
The stimulatory effect of the compound onEPO production was determined as follows using Hep3B cells.
Cells were seeded on 96 well plates at 40000 cells/well, and the plate was incubated overnight in MEM medium containing 10% fetal bovine serum (FBS) at 37° C. under 5% CO2. The next day, the medium was replaced with MEM containing 0.5% FBS, followed by addition of test compound. The test compound was dissolved in dimethyl sulfoxide and added to the cell so that the final concentration of dimethyl sulfoxide was 0.1%. After incubation for additional 48 hours, the culture supernatant was collected, and EPO contained in the supernatant was determined using ELISA kit (EPO ELISA Kit 11-693-417-001, Roche Co.). The results were expressed as stimulation rate of EPO production (fold), which was calculated as the relative value of the EPO production with 3 μmol/L of the test compound compared to the EPO production without stimulation (control).
Stimulation rate of EPO production (fold)=(EPO production with addition of test compound)/(EPO production of control)
(ELISA stands for enzyme-linked immunosorbent assay.)

In a further experiment the target is T1, human HIF-PHD3 (Homo sapiens, UniProt Q9H6Z9).
T1 construct: purchased CrystalGenomics Ltd
In words: HIF-PHD inhibition assay (fluorescence polarization), human HIF-PHD3. The conditions noted are these: 2-oxoglutaric acid 166 μmol/L. The experiment is classed as biochemical. Put shortly: (§1)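 A 5′-fluoresceinamide-labelled substrate with aminocaproic acid linker is used. Enzyme activity is computed by subtracting pre-enzyme polarization from post-enzyme polarization, expressed in mP.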

A further experiment deals with T2, human HIF-PHD2 (Homo sapiens, UniProt Q9GZT9).
T2 construct: purchased CrystalGenomics Ltd
In words: HIF-PHD inhibition assay (fluorescence polarization), human HIF-PHD2. The experiment is classed as biochemical. To be noted: 2-oxoglutaric acid 3.33 μmol/L. A digest of the protocol:
as §1
For orientation: In fluorescence polarisation assays a small probe gives low polarisation when free and higher when bound to something large.

We go through 33 compounds from patent US20150239889A1, “PYRAZOLOPYRIMIDINE COMPOUND” (MITSUBISHI TANABE PHARMA CORPORATION, priority 2012, published 2015).

T1 sequence (Q9H6Z9 whole entry): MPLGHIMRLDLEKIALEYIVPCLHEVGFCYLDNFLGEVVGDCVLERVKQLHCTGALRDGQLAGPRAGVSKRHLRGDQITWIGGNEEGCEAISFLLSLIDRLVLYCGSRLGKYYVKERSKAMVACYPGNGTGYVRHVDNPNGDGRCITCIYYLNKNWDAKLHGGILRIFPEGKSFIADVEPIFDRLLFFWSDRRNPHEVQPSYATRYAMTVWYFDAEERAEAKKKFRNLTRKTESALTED
T2 sequence (Q9GZT9 2-426 limits assumed): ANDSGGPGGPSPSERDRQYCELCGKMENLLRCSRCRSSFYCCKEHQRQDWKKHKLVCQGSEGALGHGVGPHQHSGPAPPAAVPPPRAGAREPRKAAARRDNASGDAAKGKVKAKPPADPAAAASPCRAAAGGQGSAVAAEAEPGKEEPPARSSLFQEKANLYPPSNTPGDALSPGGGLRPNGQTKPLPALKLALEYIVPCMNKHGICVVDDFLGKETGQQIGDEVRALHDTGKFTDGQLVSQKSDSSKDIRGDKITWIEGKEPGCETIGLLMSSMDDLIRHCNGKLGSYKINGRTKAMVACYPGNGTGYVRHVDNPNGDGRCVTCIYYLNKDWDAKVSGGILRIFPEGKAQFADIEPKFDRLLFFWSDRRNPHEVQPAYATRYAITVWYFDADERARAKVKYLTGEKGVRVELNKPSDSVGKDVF

For `CC(C)(CCn1ncc2nc(-n3cc(C(=O)O)cn3)nc(O)c21)c1ccc2ccccc2c1` [Example 132], the fold induction at 3 µM with Hep3B cells was found to be 2.6. For the same compound, the 50% inhibitory concentration (IC50) – broadly, the concentration that inhibits the measured activity by half – worked out at 400 nM against human HIF-PHD3 and 67 nM on human HIF-PHD2.

Regarding `O=C(O)c1cnn(-c2nc(O)c3c(cnn3Cc3cc(F)cc(-c4ccccc4)c3)n2)c1` [Example 50], the fold induction at 3 µM in the experiment with Hep3B cells came out at 6.3. Also, the IC50 on human HIF-PHD3 was 320 nM; at human HIF-PHD2, 51 nM.

`O=C(O)c1cnn(-c2nc(O)c3c(cnn3CCCOc3cccc4c3CCCC4)n2)c1` [Example 193]: the fold induction at 3 µM in the experiment on Hep3B cells was 9.8. For the same compound, the figures for the IC50 against human HIF-PHD3 and on human HIF-PHD2 were 190 nM and 85 nM, respectively.

As for `COc1ccccc1-c1ccc(Cn2ncc3nc(-n4cc(C(=O)O)cn4)nc(O)c32)cc1F` [Example 95], in the experiment with Hep3B cells, the fold induction at 3 µM is 4.2. Moreover, the IC50 on human HIF-PHD3 turned out to be 86 nM; at human HIF-PHD2, 24 nM.

On to `O=C(O)c1cnn(-c2nc(O)c3c(cnn3Cc3cccc(-c4ccc(F)cc4)c3)n2)c1` [Example 40], for which, in the experiment with Hep3B cells, the fold induction at 3 µM was found to be 5. The IC50 against human HIF-PHD3 came out at 140 nM; against human HIF-PHD2, 11 nM.

Turning to `CC1(C)CCC(Cn2ncc3nc(-n4cc(C(=O)O)cn4)nc(O)c32)CC1` [Example 380], in the experiment on Hep3B cells, the fold induction at 3 µM stood at 3.9. For the same compound, the values for the IC50 on human HIF-PHD3 and against human HIF-PHD2 were 400 nM and 20 nM, respectively.

On to `O=C(O)c1cnn(-c2nc(O)c3c(n2)c(C(F)(F)F)nn3CC2CCCCC2)c1` [Example 477], for which, in the experiment on Hep3B cells, the fold induction at 3 µM is 2.5. For the same compound, the IC50 at human HIF-PHD3 is 830 nM; against human HIF-PHD2 it was 180 nM.

As for `O=C(O)c1cnn(-c2nc(O)c3c(n2)c(F)nn3C[C@H]2CC[C@H](C(F)(F)F)CC2)c1` [Example 465], in the experiment on Hep3B cells, the fold induction at 3 µM was found to be 2.5. Besides, the figures for the IC50 against human HIF-PHD3 and at human HIF-PHD2 were 210 nM and 11 nM, respectively.

`Cc1cccc(-c2ccc(Cn3ncc4nc(-n5cc(C(=O)O)cn5)nc(O)c43)cc2)c1` [Example 64]: in the experiment on Hep3B cells, the fold induction at 3 µM came out at 23. Further, the IC50 was 66 nM at human HIF-PHD3 and 18 nM at human HIF-PHD2.

In the case of `CC(C)(COc1ccc(Cl)cc1)Cn1ncc2nc(-n3cc(C(=O)O)cn3)nc(O)c21` [Example 197], the fold induction at 3 µM with Hep3B cells amounted to 5.8. The IC50 on human HIF-PHD3 was found to be 760 nM; at human HIF-PHD2, 190 nM.

Regarding `Cc1c(CCn2ncc3nc(-n4cc(C(=O)O)cn4)nc(O)c32)ccc2ccccc12` [Example 126], in the experiment on Hep3B cells, the fold induction at 3 µM turned out to be 5.2. Also, the IC50 against human HIF-PHD3 is 420 nM; at human HIF-PHD2 it was 51 nM.

Turning to `O=C(O)c1cnn(-c2nc(O)c3c(cnn3Cc3ccc(F)c(Br)c3)n2)c1` [Example 14], in the experiment with Hep3B cells, the fold induction at 3 µM turned out to be 1.4. For the same compound, the IC50 at human HIF-PHD3 worked out at 280 nM; at human HIF-PHD2 it was 31 nM.

For `O=C(O)c1cnn(-c2nc(O)c3c(cnn3CCOc3ccc(C(F)(F)F)cc3)n2)c1` [Example 203], the fold induction at 3 µM in the experiment on Hep3B cells worked out at 4.5. The IC50 against human HIF-PHD3 is 170 nM; on human HIF-PHD2, 65 nM.

Turning to `O=C(O)c1cnn(-c2nc(O)c3c(cnn3CCCOc3ccc(C(F)(F)F)cc3)n2)c1` [Example 175], in the experiment with Hep3B cells, the fold induction at 3 µM was 15. Besides, the IC50 stood at 390 nM at human HIF-PHD3 and 21 nM on human HIF-PHD2.

As to `Cc1cccc(C)c1-c1ccc(Cn2ncc3nc(-n4cc(C(=O)O)cn4)nc(O)c32)cc1` [Example 68], the fold induction at 3 µM in the experiment on Hep3B cells stood at 9.5. For the same compound, the IC50 against human HIF-PHD3 was 160 nM; against human HIF-PHD2 it was 23 nM.

As to `CC(C)(Cn1ncc2nc(-n3cc(C(=O)O)cn3)nc(O)c21)c1ccc(Cl)cc1` [Example 120], the fold induction at 3 µM with Hep3B cells is 9.7. Besides, the IC50 against human HIF-PHD3 was 890 nM; against human HIF-PHD2, 54 nM.

Take `C[C@@H](C1CCCCC1)n1ncc2nc(-n3cc(C(=O)O)cn3)nc(O)c21` [Example 144]: the fold induction at 3 µM in the experiment on Hep3B cells was 4.3. Moreover, the IC50 on human HIF-PHD3 was determined as 1300 nM; on human HIF-PHD2, 15 nM.

For `COc1ccccc1-c1ccc([C@H](C)n2ncc3nc(-n4cc(C(=O)O)cn4)nc(O)c32)cc1` [Example 113], the fold induction at 3 µM in the experiment with Hep3B cells came to 7.5. Also, the IC50 at human HIF-PHD3 is 85 nM; on human HIF-PHD2, 5.3 nM.

For `O=C(O)c1cnn(-c2nc(O)c3c(cnn3Cc3cc(C(F)(F)F)cc(Cl)c3F)n2)c1` [Example 4], the fold induction at 3 µM with Hep3B cells came to 1.7. Moreover, the IC50 was found to be 780 nM against human HIF-PHD3 and 27 nM on human HIF-PHD2.

As for `CCCC(C)(C)Cn1ncc2nc(-n3cc(C(=O)O)cn3)nc(O)c21` [Example 493], the fold induction at 3 µM in the experiment on Hep3B cells amounted to 2.8. Also, the IC50 against human HIF-PHD3 amounted to 550 nM; against human HIF-PHD2, 86 nM.

On to `CC(C)(C)c1ccc(OCCCn2ncc3nc(-n4cc(C(=O)O)cn4)nc(O)c32)cc1` [Example 178], for which, in the experiment with Hep3B cells, the fold induction at 3 µM stood at 37. The IC50 was 570 nM against human HIF-PHD3 and 24 nM against human HIF-PHD2.

In the case of `CCc1ccc2cc(CCn3ncc4nc(-n5cc(C(=O)O)cn5)nc(O)c43)ccc2c1` [Example 128], the fold induction at 3 µM with Hep3B cells worked out at 168. The IC50 at human HIF-PHD3 amounted to 180 nM; at human HIF-PHD2, 12 nM.

In the case of `O=C(O)c1cnn(-c2nc(O)c3c(n2)c(F)nn3CC2CCC3(CC2)CC3)c1` [Example 466], the fold induction at 3 µM in the experiment on Hep3B cells came to 2.6. The IC50 stood at 240 nM at human HIF-PHD3 and 12 nM against human HIF-PHD2.

Regarding `O=C(O)c1cnn(-c2nc(O)c3c(n2)c(Cl)nn3CC2CCCCC2)c1` [Example 222], the fold induction at 3 µM with Hep3B cells worked out at 1.5. Further, the IC50 is 450 nM on human HIF-PHD3 and 48 nM against human HIF-PHD2.

Turning to `O=C(O)c1cnn(-c2nc(O)c3c(cnn3CCCOc3ccc(Cl)c(C(F)(F)F)c3)n2)c1` [Example 177], the fold induction at 3 µM in the experiment on Hep3B cells amounted to 9.1. The IC50 at human HIF-PHD3 stood at 170 nM; at human HIF-PHD2 it was 28 nM.

For the compound `CC1(C)C(Cn2ncc3nc(-n4cc(C(=O)O)cn4)nc(O)c32)C1(C)C` [Example 162], the fold induction at 3 µM in the experiment on Hep3B cells turned out to be 18. The IC50 on human HIF-PHD3 amounted to 400 nM; against human HIF-PHD2, 52 nM.

Take `O=C(O)c1cnn(-c2nc(O)c3c(cnn3CCCc3ccc4ccccc4c3)n2)c1` [Example 131]: in the experiment with Hep3B cells, the fold induction at 3 µM stood at 8.6. For the same compound, the IC50 was determined as 700 nM against human HIF-PHD3 and 72 nM against human HIF-PHD2.

As for `O=C(O)c1cnn(-c2nc(O)c3c(cnn3Cc3c(F)cc(-c4ccccc4)cc3F)n2)c1` [Example 79], in the experiment with Hep3B cells, the fold induction at 3 µM was 14. The IC50 against human HIF-PHD3 was 200 nM; at human HIF-PHD2 it was 16 nM.

On to `O=C(O)c1cnn(-c2nc(O)c3c(cnn3CC3CCCCC3)n2)c1` [Example 136], for which, in the experiment on Hep3B cells, the fold induction at 3 µM stood at 8.5. The IC50 on human HIF-PHD3 was found to be 320 nM; on human HIF-PHD2, 31 nM.

For the compound `CCC(CC)Cn1nc(F)c2nc(-n3cc(C(=O)O)cn3)nc(O)c21` [Example 498], the fold induction at 3 µM with Hep3B cells was determined as 2.7. Besides, the results for the IC50 at human HIF-PHD3 and at human HIF-PHD2 were 310 nM and 49 nM, respectively.

Regarding `Cc1ccc(OC(C)(C)Cn2ncc3nc(-n4cc(C(=O)O)cn4)nc(O)c32)c2c1CCC2` [Example 211], the fold induction at 3 µM in the experiment with Hep3B cells is 8.9. The IC50 is 180 nM against human HIF-PHD3 and 26 nM at human HIF-PHD2.

Turning to `COc1ccc(Cn2ncc3nc(-n4cc(C(=O)O)cn4)nc(O)c32)cc1` [Example 3], the fold induction at 3 µM in the experiment on Hep3B cells amounted to 2.1. Further, the IC50 is 160 nM against human HIF-PHD3 and 31 nM on human HIF-PHD2.

Consider `CCC(c1ccc(Cl)cc1)n1ncc2nc(-n3cc(C(=O)O)cn3)nc(O)c21` (single isomer, unassigned) [Example 323], for which the fold induction at 3 µM in the experiment with Hep3B cells worked out at 3.8. For the same compound, the IC50 at human HIF-PHD3 was 300 nM; against human HIF-PHD2 it was 22 nM.
